Measured values from US11999746B2, “Compounds” (GlaxoSmithKline Intellectual Property Development Limited, priority 2014, dated 2024).

Tests used:
Lp-PLA2 in human plasma = biological target: T1, Lp-PLA2 in human plasma (Homo sapiens, UniProt Q13093); test: (3a) Lp-PLA2 human plasma Thio-PAF assay; type: biochemical; conditions: (3a) Thio-PAF assay, pooled human plasma; Examples 1-265 and 413-430 were tested here; read-out: pIC50 in the Lp-PLA2 human plasma assay (converted)
T1 construct: from tissue; host or cells: pooled human plasma
T1 sequence (Q13093 22-441): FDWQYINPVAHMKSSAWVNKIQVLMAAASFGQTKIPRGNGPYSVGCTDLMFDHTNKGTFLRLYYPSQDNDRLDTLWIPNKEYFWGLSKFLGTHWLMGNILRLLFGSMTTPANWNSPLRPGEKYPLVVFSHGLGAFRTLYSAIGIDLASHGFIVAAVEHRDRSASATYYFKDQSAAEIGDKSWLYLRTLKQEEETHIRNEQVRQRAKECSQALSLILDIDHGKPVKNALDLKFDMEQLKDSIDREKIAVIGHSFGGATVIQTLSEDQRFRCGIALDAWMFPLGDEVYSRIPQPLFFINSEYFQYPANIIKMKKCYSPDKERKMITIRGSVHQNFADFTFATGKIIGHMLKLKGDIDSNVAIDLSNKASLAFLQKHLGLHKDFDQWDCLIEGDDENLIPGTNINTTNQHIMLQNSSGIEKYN
Procedure, shortened: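 Pooled human plasma preincubated 30 min with serially diluted compound, then given 2-thio-PAF substrate with CPM and NEM in 50 mM HEPES pH 7.4, 150 mM NaCl, 1 mM CHAPS. Reaction quenched with TFA after 2 min; CPM thiol-adduct fluorescence read at ex 380/em 485 after 40 min; pIC50 reported.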

[1] = biological target: T2, recombinant human Lp-PLA2 (Homo sapiens, UniProt Q13093); test: (1a) PED6 assay, recombinant human Lp-PLA2 (rhLp-PLA2); type: biochemical; conditions: Examples 1-167 and 413-430 were tested here, one experiment or average of multiple experiments, read-out: rhLp-PLA2 (pIC50) (converted)
T2 sequence (Q13093 22-441): T1 sequence (Q13093 22-441)
Procedure, shortened: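 PED6 (2 μM final after 1:1 addition of 4 μM stock) cleavage by rhLp-PLA2 (4 nM working solution) in 50 mM HEPES pH 7.4, 150 mM NaCl, 1 mM CHAPS; compounds preincubated with enzyme 30 minutes, reaction 20 min at room temperature. Fluorescence at ex 480/em 540; pIC50 from curve fit.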

| IC50 (Lp-PLA2 in human plasma) | IC50 [1] | Compound |
| --- | --- | --- |
| ≤ 10000 nM | ≤ 100 nM | O=c1nc(OCc2cc(F)c(F)c(F)c2)cc2n1CC1CCCN21 (centres unmarked) [Example E89, 3-((3,4,5-Trifluorobenzyl)oxy)-7,8,8a,9-tetrahydropyrrolo[1′,2′:3,4]imidazo[1,2-c] pyrimidin-1(6H)-one] |
| ≤ 10000 nM | ≤ 100 nM | CC(C)n1cc(Oc2c(F)cc(COc3cc4n(c(=O)n3)CC3CCCN43)cc2F)cn1 (centres unmarked) [Example E65, 3-((3,5-Difluoro-4-((1-isopropyl-1H-pyrazol-4-yl)oxy)benzyl)oxy)-7,8,8a, 9-tetrahydro pyrrolo[1′,2′:3,4]imidazo[1,2-c]pyrimidin-1(6H)-one] |
| ≤ 10000 nM | ≤ 100 nM | CCn1cc(Oc2c(F)cc(COc3cc4n(c(=O)n3)C[C@@H]3COCN43)cc2F)cn1 [Example E158, (R)-6-((4-((1-ethyl-1H-pyrazol-4-yl)oxy)-3,5-difluorobenzyl)oxy)-10,10a-dihydro-1H-oxazolo[3′,4′:3,4]imidazo[1,2-c]pyrimidin-8(3H)-one] |
| ≤ 10000 nM | ≤ 100 nM | O=c1nc(OCc2cc(F)c(OC3CCC(F)(F)C3)c(F)c2)cc2n1CC1CCCN21 (centres unmarked) [Example E94, 3-((4-((3,3-difluorocyclopentyl)oxy)-3,5-difluorobenzyl)oxy)-7,8,8a,9-tetrahydropyrrolo[1′,2′:3,4]imidazo[1,2-c]pyrimidin-1(6H)-one] |
| ≤ 10000 nM | ≤ 100 nM | O=c1nc(OCc2cc(F)c(F)c(F)c2)cc2n1C[C@@H]1COCN21 [Example E153, (R)-6-((3,4,5-trifluorobenzyl)oxy)-10,10a-dihydro-1H-oxazolo[3′,4′:3,4]imidazo[1,2-c] pyrimidin-8(3H)-one] |
| ≤ 100 nM | 1.26 nM | CCn1cc(Oc2c(F)cc(COc3cc4n(c(=O)n3)CC3COCCN43)cc2F)cn1 (centres unmarked) [Example E109, 7-((4-((1-Ethyl-1H-pyrazol-4-yl)oxy)-3,5-difluorobenzyl)oxy)-3,4,11,11a-tetrahydropyrimido[6′,1′:2,3]imidazo[5,1-c][1,4]oxazin-9(1H)-one] |
| ≤ 100 nM | ≤ 1 nM | CN1CCN2c3cc(OCc4cc(F)c(Oc5ccnc(C(F)(F)F)c5)c(F)c4)nc(=O)n3CC2C1 (centres unmarked) [Example E166, 7-((3,5-Difluoro-4-((2-(trifluoromethyl)pyridin-4-yl)oxy)benzyl)oxy)-2-methyl-3,4,11,11a-tetrahydro-1H-pyrazino[1′,2′:3,4]imidazo[1,2-c]pyrimidin-9(2H)-one] |
| ≤ 10000 nM | ≤ 100 nM | O=c1nc(OCc2ccc(Cl)c(F)c2)cc2n1C[C@H]1COCN21 [Example E145, (S)-6-((4-chloro-3-fluorobenzyl)oxy)-10,10a-dihydro-1H-oxazolo[3′,4′:3,4]imidazo[1,2-c] pyrimidin-8(3H)-one] |
| ≤ 10000 nM | ≤ 100 nM | CCn1cc(Oc2c(F)cc(COc3cc4n(c(=O)n3)CC3CCCN43)cc2F)cn1 (centres unmarked) [Example E64, 3-((4-((1-Ethyl-1H-pyrazol-4-yl)oxy)-3,5-difluorobenzyl)oxy)-7,8,8a, 9-tetrahydropyrrolo[1′,2′:3,4]imidazo[1,2-c]pyrimidin-1(6H)-one] |
| ≤ 100 nM | ≤ 1 nM | O=c1nc(OCc2cc(F)c(Oc3cnn(C(F)(F)F)c3)c(F)c2)cc2n1C[C@@H]1COCN21 [Example E154, (R)-6-((3,5-difluoro-4-((1-(trifluoromethyl)-1H-pyrazol-4-yl)oxy)benzyl)oxy)-10,10a-dihydro-1H-oxazolo[3′,4′:3,4]imidazo[1,2-c]pyrimidin-8(3H)-one] |
| ≤ 100 nM | ≤ 1 nM | O=c1nc(OCc2cc(F)c(Oc3cncc(C(F)(F)F)c3)c(F)c2)cc2n1CC1CCCCN21 (centres unmarked) [Example E21, 3-((3,5-Difluoro-4-((5-(trifluoromethyl)pyridin-3-yl)oxy)benzyl)oxy)-6,7,8,9,9a,10-hexahydro-1H-pyrido[1′,2′:3,4]imidazo[1,2-c]pyrimidin-1-one] |
| ≤ 10000 nM | ≤ 100 nM | O=c1nc(OCc2cccc(F)c2)cc2n1C[C@@H]1COCCN21 [Example E132, (R)-7-((3-fluorobenzyl)oxy)-3,4,11,11a-tetrahydropyrimido[6′,1′:2,3]imidazo[5,1-c][1,4] oxazin-9(1H)-one] |
| ≤ 10000 nM | ≤ 100 nM | Cn1cc(Oc2c(F)cc(COc3cc4n(c(=O)n3)C[C@@H]3CCCCN43)cc2F)cn1 [Example E50, (S)-3-((3,5-difluoro-4-((1-methyl-1H-pyrazol-4-yl)oxy)benzyl)oxy)-6,7,8,9,9a,10-hexahydro-1H-pyrido[1′,2′:3,4]imidazo[1,2-c]pyrimidin-1-one] |

Second part, the compound before the results:

| Compound | IC50 (Lp-PLA2 in human plasma) | IC50 [1] |
| --- | --- | --- |
| N#Cc1cc(COc2cc3n(c(=O)n2)CC2CCCCN32)ccc1Oc1cccc(C(F)(F)F)c1 (centres unmarked) [Example E12, 5-(((1-Oxo-6,7,8,9,9a,10-hexahydro-1H-pyrido[1′,2′:3,4]imidazo[1,2-c]pyrimidin-3-yl)oxy)methyl)-2-(3-(trifluoromethyl)phenoxy)benzonitrile] | ≤ 100 nM | ≤ 1 nM |
| O=c1nc(OCc2ccc(F)c(F)c2)cc2n1C[C@H]1CCCCN21 [Example E30, (R)-3-((3,4-Difluorobenzyl)oxy)-6,7,8,9,9a,10-hexahydro-1H-pyrido[1′,2′:3,4]imidazo[1,2-c]pyrimidin-1-one] | ≤ 100 nM | ≤ 100 nM |
| CN1c2cc(OCc3cccc(F)c3F)nc(=O)n2CC12CCCCC2 [Example 425, 7′4(2,3-difluorobenzyhoxy)-1-methyl-1H-spiro[cyclohexane-1,2′-imidazo[1,2-c]pyrimidin]-5′(3′H)-one] | ≤ 10000 nM | ≤ 100 nM |
| CN1c2cc(OCc3cc(F)c(F)cc3F)nc(=O)n2CC12CCCC2 [Example 415, 1-methyl-7′-((2,4,5-trifluorobenzyl)oxy)-1′H-spiro[cyclopentane-1,2′-imidazo[1,2-c]pyrimidin]-5′(3′H)-one] | ≤ 10000 nM | ≤ 100 nM |
| O=c1nc(OCc2ccc(F)cc2F)cc2n1C[C@@H]1CCCCN21 [Example E57, (S)-3-((2,4-Difluorobenzyl)oxy)-6,7,8,9,9a,10-hexahydro-1H-pyrido[1′,2′:3,4]imidazo[1,2-c] pyrimidin-1-one] | ≤ 10000 nM | ≤ 100 nM |
| CCn1cc(Oc2c(F)cc(COc3cc4n(c(=O)n3)C[C@H]3COCN43)cc2F)cn1 [Example E160, (S)-6-((4-((1-ethyl-1H-pyrazol-4-yl)oxy)-3,5-difluorobenzyl)oxy)-10,10a-dihydro-1H-oxazolo[3′,4′:3,4]imidazo[1,2-c]pyrimidin-8(3H)-one] | ≤ 10000 nM | ≤ 100 nM |
| O=c1nc(OCc2cc(F)c(F)c(F)c2)cc2n1C[C@H]1CCCN21 [Example E70, (R)-3-((3,4,5-trifluorobenzyl)oxy)-7,8,8a,9-tetrahydropyrrolo[1′,2′:3,4]imidazo[1,2-c] pyrimidin-1(6H)-one] | ≤ 100 nM | ≤ 100 nM |
| O=c1nc(NCc2cccc(F)c2)cc2n1C[C@H]1CCCN21 [Example E104, (R)-3-((3-fluorobenzyl)amino)-7,8,8a,9-tetrahydropyrrolo[1′,2′:3,4]imidazo[1,2-c]pyrimidin-1(6H)-one] | ≤ 10000 nM | ≤ 100 nM |
| O=c1nc(OCc2cc(F)c(Oc3ccnc(C(F)(F)F)c3)c(F)c2)cc2n1CC1OCCN21 (single isomer, unassigned) [Example E165, 6-((3,5-difluoro-4-((2-(trifluoromethyl)pyridin-4-yl)oxy)benzyl)oxy)-10,10a-dihydro-2H-oxazolo[3′,2′:3,4]imidazo[1,2-c]pyrimidin-8(3H)-one] | ≤ 100 nM | ≤ 100 nM |
| Cn1cc(Oc2ccc(COc3cc4n(c(=O)n3)C[C@@H]3CCCCN43)cc2F)cn1 [Example E51, (S)-3-((3-fluoro-4-((1-methyl-1H-pyrazol-4-yl)oxy)benzyl)oxy)-6,7,8,9,9a,10-hexahydro-1H-pyrido[1,2′:3,4]imidazo[1,2-c]pyrimidin-1-one] | ≤ 10000 nM | ≤ 100 nM |
| CCCCN1CC(Oc2c(F)cc(COc3cc4n(c(=O)n3)CC3CCCN43)cc2F)C1 (centres unmarked) [Example E98, 3-((4-((1-Butylazetidin-3-yl)oxy)-3,5-difluorobenzyl)oxy)-7,8,8a,9-tetrahydropyrrolo[1′,2′:3,4]imidazo[1,2-c]pyrimidin-1(6H)-one] | ≤ 10000 nM | ≤ 100 nM |
| Cc1ncc(Oc2c(F)cc(COc3cc4n(c(=O)n3)C[C@H]3COCN43)cc2F)cn1 [Example E152, (S)-6-((3,5-difluoro-4-((2-methylpyrimidin-5-yl)oxy)benzyl)oxy)-10,10a-dihydro-1H-oxazolo[3′,4′:3,4]imidazo[1,2-c]pyrimidin-8(3H)-one] | ≤ 100 nM | ≤ 100 nM |
